From the supplement of paper PMC10307832

Columns and labels:
Assay in all cases: relative viability (nuclei count vs DMSO), 5 days (fraction); higher = more cells survive
[1] = compound: CC1=CC=C(C=C1)C(=O)CN2C3=C(CCCC3)SC2=N [Pifithrin_alpha] + Nc1nc2[nH]cc(CCc3ccc(C(=O)N[C@@H](CCC(=O)O)C(=O)O)cc3)c2c(=O)[nH]1 [Pemetrexed] (partner 0.2 µM)
In short: (§1)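 Five library-drug doses in √10 steps were combined with a fixed anchor-drug dose, or a single drug was given alone, by pin tool to lung cancer cell lines in 1536-well plates the day after seeding. Nuclei were stained and counted after 5 days. Relative viability is the nuclei count in treated wells over that in vehicle wells, taken as the median of duplicate plates.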

[2] = compound: CNC(=O)c1ccccc1Sc1ccc2c(/C=C/c3ccccn3)n[nH]c2c1 [Axitinib] + CC(C)C[C@H](NC(=O)[C@H](Cc1ccccc1)NC(=O)c1cnccn1)B(O)O [Bortezomib] (partner 0.002 µM)
In short: as §1

[3] = compound: CNC(=O)c1ccccc1Sc1ccc2c(/C=C/c3ccccn3)n[nH]c2c1 [Axitinib] + CCNC(=O)c1noc(-c2cc(C(C)C)c(O)cc2O)c1-c1ccc(CN2CCOCC2)cc1 [Luminespib] (partner 0.01 µM)
In short: as §1

[4] = compound: Nc1nc(Nc2ccc3c(c2)CC[C@@H](N2CCCC2)CC3)nn1-c1cc2c(nn1)-c1ccccc1CCC2 [Bemcentinib] + CCNC(=O)c1noc(-c2cc(C(C)C)c(O)cc2O)c1-c1ccc(CN2CCOCC2)cc1 [Luminespib] (partner 0.01 µM)
In short: as §1

Cell Line	relative viability ([1]; first compound 1 µM)	relative viability ([1]; first compound 3.162 µM)	relative viability ([1]; first compound 10 µM)	relative viability ([1]; first compound 31.62 µM)	relative viability ([1]; first compound 100 µM)	relative viability ([2]; first compound 0.005 µM)	relative viability ([2]; first compound 0.01581 µM)	relative viability ([2]; first compound 0.05 µM)	relative viability ([2]; first compound 0.1581 µM)	relative viability ([2]; first compound 0.5 µM)	relative viability ([3]; first compound 0.005 µM)	relative viability ([3]; first compound 0.01581 µM)	relative viability ([3]; first compound 0.05 µM)	relative viability ([3]; first compound 0.1581 µM)	relative viability ([3]; first compound 0.5 µM)	relative viability ([4]; first compound 0.04 µM)	relative viability ([4]; first compound 0.1265 µM)	relative viability ([4]; first compound 0.4 µM)	relative viability ([4]; first compound 1.265 µM)	relative viability ([4]; first compound 4 µM)
HOP-62	0.209	0.4	0.38	0.304	0.441	1.02	0.776	0.668	0.891	1.21	0.934	0.798	0.908	0.885	0.85	0.863	0.875	0.844	1.02	1
LC-2-ad	0.307	0.256	0.293	0.263	0.251	1.1	1.06	0.93	1.04	1.16	1.01	1.13	1.04	0.897	0.956	0.997	1.11	1.03	0.935	0.905
LCLC-97TM1	–	0.184	0.183	–	0.15	0.732	0.419	0.585	0.515	0.736	0.671	0.826	0.663	0.672	0.722	0.684	0.793	0.726	0.866	0.986
LCLC-103H	0.46	0.433	0.436	0.458	0.493	1.07	1.07	1.18	1.03	1.07	0.988	0.917	0.978	0.924	0.994	1.06	1.15	0.94	1.11	0.899
LOU-NH91	0.398	0.362	0.307	0.332	0.359	0.517	0.537	0.43	0.475	0.57	0.325	0.377	0.379	0.349	0.331	0.293	0.414	0.354	0.303	0.324
LU99A	0.183	0.243	0.19	–	0.172	1.1	1.09	1.13	1.12	1.12	0.239	0.265	0.241	0.302	0.303	0.19	0.289	0.234	0.346	0.24
LXF-289	0.908	0.985	0.921	0.767	0.943	0.977	0.918	0.974	0.974	1	0.69	0.721	0.659	0.573	0.781	0.74	0.78	0.703	0.653	0.665
NCI-H23	0.679	0.609	0.734	0.479	0.547	1.06	1.09	1	1.03	1.02	0.21	–	0.233	0.231	0.219	0.197	0.233	0.192	0.224	0.214
NCI-H322M	0.635	0.599	0.605	0.578	0.511	1.34	1.07	1.12	1.2	1.12	1.06	0.845	0.833	0.796	1.07	0.828	0.943	0.835	0.817	0.804
NCI-H441	0.297	0.248	0.235	–	0.244	0.626	0.54	0.444	0.465	0.443	0.305	0.325	0.313	0.456	0.576	0.354	0.485	0.303	0.469	0.321
NCI-H460	0.0605	0.0587	0.0622	0.0636	0.0898	1.09	1.07	0.975	0.96	1.37	0.0293	0.0335	0.0318	0.0323	0.0338	0.0301	0.0417	0.0326	0.0332	0.0269
NCI-H520	0.721	0.741	0.727	0.461	0.699	0.685	0.698	0.474	0.5	0.705	0.228	0.239	0.23	0.222	0.284	0.248	0.191	0.252	0.23	0.303
NCI-H596	0.523	0.468	0.513	0.498	0.483	0.859	0.887	1.08	1.11	0.995	1.12	1.09	1	0.93	1.04	0.893	1.12	1.23	1.27	1.09
NCI-H647	0.166	0.164	0.197	0.156	0.162	1.04	1.1	0.94	1.01	1.08	0.292	0.167	0.168	0.227	0.285	0.142	0.157	0.108	0.143	0.136
NCI-H661	0.937	0.922	0.962	0.834	0.888	0.93	0.83	0.648	0.785	0.842	0.901	0.924	0.9	0.998	0.952	0.87	0.961	0.895	0.963	0.987
NCI-H838	0.194	0.242	0.272	0.235	0.287	0.961	1.01	0.902	0.726	0.965	0.247	0.33	0.334	0.24	0.246	0.256	0.278	0.357	0.282	0.262

Cell Line	relative viability ([1]; first compound 1 µM)	relative viability ([1]; first compound 3.162 µM)	relative viability ([1]; first compound 10 µM)	relative viability ([1]; first compound 31.62 µM)	relative viability ([1]; first compound 100 µM)	relative viability ([2]; first compound 0.005 µM)	relative viability ([2]; first compound 0.01581 µM)	relative viability ([2]; first compound 0.05 µM)	relative viability ([2]; first compound 0.1581 µM)	relative viability ([2]; first compound 0.5 µM)	relative viability ([3]; first compound 0.005 µM)	relative viability ([3]; first compound 0.01581 µM)	relative viability ([3]; first compound 0.05 µM)	relative viability ([3]; first compound 0.1581 µM)	relative viability ([3]; first compound 0.5 µM)	relative viability ([4]; first compound 0.04 µM)	relative viability ([4]; first compound 0.1265 µM)	relative viability ([4]; first compound 0.4 µM)	relative viability ([4]; first compound 1.265 µM)	relative viability ([4]; first compound 4 µM)
NCI-H1355	0.977	0.972	0.764	0.686	0.677	1.26	1.13	1.32	1.17	1.15	0.822	0.73	0.748	0.747	0.659	0.771	0.823	0.737	0.673	0.758
NCI-H1437	0.337	0.313	0.309	0.258	0.253	0.515	0.542	0.55	0.446	0.589	1.12	1.1	1.07	1.16	1.08	1.12	1.24	1.15	1.07	1.11
NCI-H1563	0.54	0.813	0.817	0.769	0.749	0.908	0.827	0.846	0.876	0.763	0.401	0.594	0.487	0.549	0.446	0.507	0.538	0.475	0.55	0.535
NCI-H1650	0.358	0.366	0.341	0.331	0.392	0.209	0.208	0.191	0.195	0.22	0.195	0.194	0.192	0.203	0.236	0.207	0.237	0.199	0.236	0.186
NCI-H1651	0.211	0.632	0.553	0.539	0.666	0.926	0.942	0.934	0.889	0.857	0.941	0.965	1.03	0.745	1	0.967	0.757	1.05	0.79	0.977
NCI-H1666	0.876	0.784	0.767	0.617	0.714	0.938	0.881	0.97	0.922	0.92	0.974	0.975	1.01	1.03	0.957	1.05	1.07	0.993	0.956	0.955
NCI-H1734	0.452	0.434	0.428	0.367	0.358	0.935	0.974	0.879	1.01	1.06	0.19	0.221	0.212	0.2	0.191	0.178	0.192	0.219	0.218	0.188
NCI-H1755	0.417	0.445	0.381	0.342	0.446	0.973	0.973	0.932	0.971	0.967	0.527	0.63	0.533	0.364	0.428	0.742	0.52	0.617	0.34	0.418
NCI-H1792	1.12	0.649	0.675	–	0.585	1	0.982	0.952	0.953	0.894	0.555	0.34	0.325	0.417	0.418	0.578	0.482	0.64	0.489	0.486
NCI-H1915	0.478	0.547	0.441	–	0.598	0.921	0.944	1.05	0.986	0.976	0.787	0.795	0.902	0.84	0.861	0.861	0.974	0.9	0.899	0.89
NCI-H1975	0.285	0.277	0.27	0.212	0.228	0.404	0.357	0.397	0.394	0.463	0.244	0.337	0.192	0.198	0.257	0.162	0.216	0.249	0.187	0.204
NCI-H1993	0.844	0.547	0.669	0.452	0.479	1.21	1.3	1.14	1.18	0.913	1.04	0.918	0.949	0.881	0.823	0.905	0.768	0.999	1.13	0.899
NCI-H2009	0.985	1.01	0.949	0.702	0.944	1.1	1.11	1.04	1.04	1.16	1.11	1.12	1.02	1.07	1.16	1.07	1.04	1.13	0.997	1.03
NCI-H2023	0.28	0.254	0.215	0.157	0.153	0.968	1	1.03	0.834	1.02	0.76	0.942	0.752	0.745	0.97	0.839	0.695	1.02	0.864	0.657
NCI-H2085	0.945	0.819	0.888	0.835	0.713	1.15	0.966	1.06	1.04	1.05	0.451	0.389	0.404	0.502	0.415	0.447	0.448	0.435	0.471	0.449
NCI-H2087	0.608	0.665	0.593	0.597	0.74	0.944	0.772	0.868	0.615	1.13	0.162	0.202	0.177	0.176	0.172	0.142	0.15	0.187	0.219	0.185
